Test results published in ChEMBL document CHEMBL5465560, “Selectivity Literature for EUbOPEN Chemogenomic Library” (2024).

Tests used:
[1] = target: Insulin receptor-related protein (Homo sapiens) (UniProt P14616); conditions: at 10 µM
Focal adhesion kinase 1 = Focal adhesion kinase 1 (Homo sapiens, UniProt Q05397); conditions: at 10 µM
[2] = tested on: Phosphatidylinositol 4,5-bisphosphate 3-kinase catalytic subunit alpha isoform (Homo sapiens), P42336 [E545K]; experiment: (§1) Selectivity interaction (Ambit KINOMEscan) EUB0000092b PIK3CA; conditions: at 10 µM
[3] = tested on: Phosphatidylinositol 4,5-bisphosphate 3-kinase catalytic subunit alpha isoform (Homo sapiens), P42336 [C420R]; experiment: as §1; conditions: at 10 µM
[4] = target: Macrophage colony-stimulating factor 1 receptor (Homo sapiens) (UniProt P07333); experiment: Selectivity interaction (KinomeScan (DiscoverX)) EUB0000655a CSF1R; conditions: at 10 µM
[5] = target: G protein-coupled receptor kinase 5 (Homo sapiens, UniProt P34947); experiment: Selectivity interaction (ProQinase) EUB0000171b GRK5
[6] = target: Tyrosine-protein kinase SYK (Homo sapiens, UniProt P43405); experiment: Selectivity interaction (ProQinase) EUB0000171b SYK
[7] = target: Dual specificity protein kinase CLK2 (Homo sapiens, UniProt P49760); experiment: Selectivity interaction (Kinase panel (Z-LYTE Assay)) EUB0001632a CLK2; conditions: at 10 µM
[8] = target: Ribosomal protein S6 kinase alpha-1 (Homo sapiens, UniProt Q15418); experiment: Selectivity interaction (KinomeScan (DiscoverX)) EUB0000607a RPS6KA1; conditions: at 10 µM
[9] = target: T1, Serine/threonine-protein kinase Nek10 (Homo sapiens) (UniProt Q6ZWH5); experiment: Selectivity interaction (KinomeScan (DiscoverX)) EUB0000695a NEK10; conditions: at 100 nM
T1 sequence (whole entry): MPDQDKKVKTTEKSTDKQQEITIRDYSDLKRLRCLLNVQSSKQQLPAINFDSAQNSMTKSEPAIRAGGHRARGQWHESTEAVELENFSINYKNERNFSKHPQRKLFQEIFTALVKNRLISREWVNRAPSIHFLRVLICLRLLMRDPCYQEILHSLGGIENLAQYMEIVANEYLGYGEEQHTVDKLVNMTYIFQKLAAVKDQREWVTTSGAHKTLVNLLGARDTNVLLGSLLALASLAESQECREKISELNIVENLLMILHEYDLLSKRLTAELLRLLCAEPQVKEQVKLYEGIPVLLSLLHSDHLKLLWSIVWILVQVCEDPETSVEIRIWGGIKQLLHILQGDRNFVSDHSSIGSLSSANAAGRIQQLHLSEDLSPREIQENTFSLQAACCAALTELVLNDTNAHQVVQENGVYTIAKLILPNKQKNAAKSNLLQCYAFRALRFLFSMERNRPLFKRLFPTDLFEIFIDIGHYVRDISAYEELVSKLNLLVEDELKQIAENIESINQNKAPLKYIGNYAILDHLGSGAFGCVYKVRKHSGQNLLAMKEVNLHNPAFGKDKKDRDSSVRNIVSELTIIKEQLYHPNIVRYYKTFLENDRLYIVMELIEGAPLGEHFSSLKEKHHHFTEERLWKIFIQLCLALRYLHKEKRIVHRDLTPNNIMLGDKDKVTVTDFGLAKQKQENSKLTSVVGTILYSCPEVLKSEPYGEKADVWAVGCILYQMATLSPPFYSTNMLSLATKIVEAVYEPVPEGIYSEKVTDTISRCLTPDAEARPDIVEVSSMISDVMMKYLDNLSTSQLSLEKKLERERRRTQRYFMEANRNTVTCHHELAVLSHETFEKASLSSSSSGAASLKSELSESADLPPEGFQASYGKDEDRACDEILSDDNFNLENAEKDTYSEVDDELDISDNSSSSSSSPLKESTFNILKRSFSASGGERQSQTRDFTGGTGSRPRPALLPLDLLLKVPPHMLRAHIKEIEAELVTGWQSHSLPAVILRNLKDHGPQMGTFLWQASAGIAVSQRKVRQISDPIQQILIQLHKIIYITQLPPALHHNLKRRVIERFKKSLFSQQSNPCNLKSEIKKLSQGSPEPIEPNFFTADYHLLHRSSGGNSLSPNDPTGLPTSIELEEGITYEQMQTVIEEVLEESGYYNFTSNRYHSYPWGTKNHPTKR

[10] = target: Phosphatidylinositol 4-kinase beta (Homo sapiens, UniProt Q9UBF8); experiment: Selectivity interaction (KinomeScan (DiscoverX)) EUB0000595a PI4KB; conditions: at 10 µM
[11] = target: Serine/threonine-protein kinase MRCK beta (Homo sapiens) (UniProt Q9Y5S2); conditions: at 10 µM
[12] = target: DNA-dependent protein kinase catalytic subunit (Homo sapiens) (UniProt P78527); experiment: Selectivity interaction (ActivX KiNativ screen (ex vivo kinase selectivity in human PBMCs)) EUB0001619a PRKDC; type: cell-based; conditions: PBMC, at 1 µM
[13] = target: cAMP-dependent protein kinase catalytic subunit beta (Homo sapiens) (UniProt P22694); experiment: Selectivity interaction (KinomeScan (DiscoverX)) EUB0001619a PRKACB; conditions: at 1 µM
Misshapen-like kinase 1 = Misshapen-like kinase 1 (Homo sapiens, UniProt Q8N4C8); experiment: Selectivity interaction (KinomeScan (DiscoverX)) EUB0001619a MINK1; conditions: at 1 µM

Sequence of G protein-coupled receptor kinase 5 (P34947 whole entry, looked up): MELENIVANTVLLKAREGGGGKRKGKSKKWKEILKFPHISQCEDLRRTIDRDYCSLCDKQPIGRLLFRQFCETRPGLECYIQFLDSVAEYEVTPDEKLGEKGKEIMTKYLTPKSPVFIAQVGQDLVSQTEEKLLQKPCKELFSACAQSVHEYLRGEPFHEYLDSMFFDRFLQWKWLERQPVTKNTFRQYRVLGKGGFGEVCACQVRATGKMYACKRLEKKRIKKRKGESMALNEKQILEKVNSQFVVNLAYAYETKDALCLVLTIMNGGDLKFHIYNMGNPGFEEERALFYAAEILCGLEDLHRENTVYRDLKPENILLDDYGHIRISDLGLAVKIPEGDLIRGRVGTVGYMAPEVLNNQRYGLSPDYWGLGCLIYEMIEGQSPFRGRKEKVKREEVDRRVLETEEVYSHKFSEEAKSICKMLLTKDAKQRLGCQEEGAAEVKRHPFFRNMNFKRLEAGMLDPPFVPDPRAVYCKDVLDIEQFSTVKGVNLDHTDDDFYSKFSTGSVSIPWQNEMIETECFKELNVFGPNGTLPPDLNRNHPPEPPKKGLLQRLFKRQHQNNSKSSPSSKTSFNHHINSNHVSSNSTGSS
Sequence of Phosphatidylinositol 4-kinase beta (Q9UBF8 2-816 limits assumed): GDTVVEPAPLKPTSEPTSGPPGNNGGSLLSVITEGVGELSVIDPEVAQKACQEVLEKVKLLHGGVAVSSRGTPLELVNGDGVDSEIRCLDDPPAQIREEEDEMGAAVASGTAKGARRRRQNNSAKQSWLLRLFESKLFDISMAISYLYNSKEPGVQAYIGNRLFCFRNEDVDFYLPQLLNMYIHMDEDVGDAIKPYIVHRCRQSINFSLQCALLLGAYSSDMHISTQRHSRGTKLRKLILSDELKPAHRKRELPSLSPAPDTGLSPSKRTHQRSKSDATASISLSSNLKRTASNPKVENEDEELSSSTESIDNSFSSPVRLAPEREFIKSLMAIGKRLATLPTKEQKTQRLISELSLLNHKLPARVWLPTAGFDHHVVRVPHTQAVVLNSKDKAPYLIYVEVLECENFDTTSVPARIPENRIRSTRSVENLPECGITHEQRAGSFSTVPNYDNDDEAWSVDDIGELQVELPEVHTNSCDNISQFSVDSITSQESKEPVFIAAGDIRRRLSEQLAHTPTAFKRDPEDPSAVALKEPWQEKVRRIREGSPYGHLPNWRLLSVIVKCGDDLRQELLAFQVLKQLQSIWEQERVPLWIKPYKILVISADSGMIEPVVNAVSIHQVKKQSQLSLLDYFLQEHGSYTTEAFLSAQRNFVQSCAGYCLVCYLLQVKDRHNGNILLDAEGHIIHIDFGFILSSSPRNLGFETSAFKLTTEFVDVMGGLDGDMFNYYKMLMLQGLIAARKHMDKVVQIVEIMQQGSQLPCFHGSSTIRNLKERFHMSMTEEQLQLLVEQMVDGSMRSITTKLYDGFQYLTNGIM
Sequence of Insulin receptor-related protein (Homo sapiens) (P14616 27-742 limits assumed): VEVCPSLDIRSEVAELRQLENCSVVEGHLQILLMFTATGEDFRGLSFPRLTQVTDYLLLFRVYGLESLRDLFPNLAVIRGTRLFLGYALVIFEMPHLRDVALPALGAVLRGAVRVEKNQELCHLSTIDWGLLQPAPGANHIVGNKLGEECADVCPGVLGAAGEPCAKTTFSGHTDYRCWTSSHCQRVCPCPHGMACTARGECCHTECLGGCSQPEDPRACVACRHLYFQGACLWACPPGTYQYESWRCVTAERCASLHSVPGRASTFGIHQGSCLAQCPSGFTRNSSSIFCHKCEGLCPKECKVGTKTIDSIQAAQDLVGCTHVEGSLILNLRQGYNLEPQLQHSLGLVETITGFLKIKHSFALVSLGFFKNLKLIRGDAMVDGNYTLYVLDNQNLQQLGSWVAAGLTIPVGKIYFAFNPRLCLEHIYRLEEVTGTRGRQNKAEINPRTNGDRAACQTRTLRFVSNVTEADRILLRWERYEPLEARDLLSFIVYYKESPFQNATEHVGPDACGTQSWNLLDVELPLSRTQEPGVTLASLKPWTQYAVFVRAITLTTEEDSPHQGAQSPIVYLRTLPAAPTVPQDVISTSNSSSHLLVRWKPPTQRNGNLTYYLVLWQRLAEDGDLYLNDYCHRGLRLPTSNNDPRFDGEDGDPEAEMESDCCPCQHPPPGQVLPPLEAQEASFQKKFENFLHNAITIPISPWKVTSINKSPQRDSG
Sequence of Insulin receptor-related protein (Homo sapiens) (P14616 747-1297 limits assumed): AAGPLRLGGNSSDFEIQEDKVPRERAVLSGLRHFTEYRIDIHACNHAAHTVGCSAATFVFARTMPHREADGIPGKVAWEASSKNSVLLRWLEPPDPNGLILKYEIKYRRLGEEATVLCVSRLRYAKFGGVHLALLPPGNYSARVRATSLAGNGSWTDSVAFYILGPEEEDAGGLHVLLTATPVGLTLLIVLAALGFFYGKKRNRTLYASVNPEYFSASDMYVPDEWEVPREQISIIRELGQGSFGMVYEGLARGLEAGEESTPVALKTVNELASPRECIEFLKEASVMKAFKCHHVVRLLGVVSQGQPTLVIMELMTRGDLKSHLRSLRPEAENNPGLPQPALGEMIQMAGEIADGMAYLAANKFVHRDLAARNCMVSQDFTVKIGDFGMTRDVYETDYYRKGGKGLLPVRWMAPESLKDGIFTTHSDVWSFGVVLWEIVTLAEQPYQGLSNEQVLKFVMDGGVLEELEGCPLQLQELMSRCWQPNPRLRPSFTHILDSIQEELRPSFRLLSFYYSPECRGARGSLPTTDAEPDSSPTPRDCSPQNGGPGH
Sequence of Serine/threonine-protein kinase MRCK beta (Homo sapiens) (Q9Y5S2 whole entry): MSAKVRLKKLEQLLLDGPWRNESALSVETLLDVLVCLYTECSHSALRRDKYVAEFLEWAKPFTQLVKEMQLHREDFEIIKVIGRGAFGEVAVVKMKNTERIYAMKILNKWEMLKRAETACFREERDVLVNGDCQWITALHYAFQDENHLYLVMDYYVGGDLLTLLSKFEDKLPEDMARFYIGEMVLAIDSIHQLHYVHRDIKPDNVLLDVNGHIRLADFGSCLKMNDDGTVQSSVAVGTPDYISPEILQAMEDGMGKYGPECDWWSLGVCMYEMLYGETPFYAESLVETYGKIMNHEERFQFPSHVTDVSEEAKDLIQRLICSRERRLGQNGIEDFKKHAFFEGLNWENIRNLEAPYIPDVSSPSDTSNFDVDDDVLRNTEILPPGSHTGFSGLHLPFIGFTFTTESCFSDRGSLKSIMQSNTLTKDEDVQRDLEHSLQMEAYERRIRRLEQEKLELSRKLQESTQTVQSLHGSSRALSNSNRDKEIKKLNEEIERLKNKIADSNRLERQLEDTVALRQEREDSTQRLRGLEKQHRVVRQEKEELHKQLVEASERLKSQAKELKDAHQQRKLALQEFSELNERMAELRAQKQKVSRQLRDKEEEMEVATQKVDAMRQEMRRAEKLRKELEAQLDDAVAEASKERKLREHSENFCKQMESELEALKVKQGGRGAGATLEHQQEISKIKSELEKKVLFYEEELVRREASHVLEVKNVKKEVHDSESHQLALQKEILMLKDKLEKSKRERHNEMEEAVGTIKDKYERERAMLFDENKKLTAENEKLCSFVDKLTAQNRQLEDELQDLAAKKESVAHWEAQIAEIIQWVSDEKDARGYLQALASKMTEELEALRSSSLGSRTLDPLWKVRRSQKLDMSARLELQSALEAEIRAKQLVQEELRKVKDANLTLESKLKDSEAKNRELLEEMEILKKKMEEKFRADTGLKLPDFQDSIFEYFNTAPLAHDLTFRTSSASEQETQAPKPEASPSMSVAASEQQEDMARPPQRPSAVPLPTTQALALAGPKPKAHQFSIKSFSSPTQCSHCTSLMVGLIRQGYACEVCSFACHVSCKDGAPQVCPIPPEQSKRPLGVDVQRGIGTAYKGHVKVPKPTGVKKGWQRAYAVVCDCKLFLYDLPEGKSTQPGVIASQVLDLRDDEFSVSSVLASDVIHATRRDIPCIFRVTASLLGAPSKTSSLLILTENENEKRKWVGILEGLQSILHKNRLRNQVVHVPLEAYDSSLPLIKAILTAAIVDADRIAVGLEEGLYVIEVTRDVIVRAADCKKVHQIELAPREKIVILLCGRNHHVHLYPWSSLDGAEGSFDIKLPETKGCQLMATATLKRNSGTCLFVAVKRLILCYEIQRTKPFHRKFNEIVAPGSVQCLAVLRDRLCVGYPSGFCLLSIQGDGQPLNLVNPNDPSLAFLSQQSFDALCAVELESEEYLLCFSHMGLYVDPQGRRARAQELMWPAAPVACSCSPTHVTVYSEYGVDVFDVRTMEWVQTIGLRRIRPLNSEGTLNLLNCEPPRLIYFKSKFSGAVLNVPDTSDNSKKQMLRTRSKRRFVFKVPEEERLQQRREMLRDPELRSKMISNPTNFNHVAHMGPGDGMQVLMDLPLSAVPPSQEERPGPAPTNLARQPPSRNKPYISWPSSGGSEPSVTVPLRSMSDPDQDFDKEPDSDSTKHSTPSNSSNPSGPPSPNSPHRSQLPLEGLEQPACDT
Sequence of Dual specificity protein kinase CLK2 (P49760 whole entry, looked up): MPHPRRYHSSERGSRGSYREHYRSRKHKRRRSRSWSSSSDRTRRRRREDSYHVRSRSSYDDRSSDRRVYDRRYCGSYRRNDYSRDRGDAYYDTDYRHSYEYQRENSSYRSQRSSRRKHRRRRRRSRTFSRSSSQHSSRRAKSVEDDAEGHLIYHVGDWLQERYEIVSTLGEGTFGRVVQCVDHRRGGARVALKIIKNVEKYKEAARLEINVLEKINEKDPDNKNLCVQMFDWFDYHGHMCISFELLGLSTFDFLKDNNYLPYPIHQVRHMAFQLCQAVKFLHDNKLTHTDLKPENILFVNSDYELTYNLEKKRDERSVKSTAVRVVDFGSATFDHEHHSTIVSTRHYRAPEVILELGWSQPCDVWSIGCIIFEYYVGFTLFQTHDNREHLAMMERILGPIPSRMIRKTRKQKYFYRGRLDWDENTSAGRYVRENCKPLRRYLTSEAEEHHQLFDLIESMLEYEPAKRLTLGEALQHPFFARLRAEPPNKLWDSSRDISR

`CCN(CC)CCCCNc1ncc2cc(-c3cc(OC)cc(OC)c3)c(NC(=O)NC(C)(C)C)nc2n1` gave a % of control [1] of 100% and a % of control (Focal adhesion kinase 1) of 100%.
For `CCC(=O)N1CCN(c2ccc(-n3c(=O)ccc4cnc5ccc(-c6cnc7ccccc7c6)cc5c43)cc2C(F)(F)F)CC1`, the % of control [2] was 0.6% and the % of control [3] was 0.7%.
Work on `CN(C)CCOc1ccc(-c2nc(-c3ccncc3)c(-c3ccc4c(c3)CC/C4=N\O)[nH]2)cc1` yielded a % of control [4] of 86%.
In the case of `C=CC(=O)Nc1cccc(C(=O)Nc2ccc(Nc3cc(-c4[nH]c(SC)nc4C)ccn3)cc2)c1`, the % of control ([5]; at 1 µM) is reported as 97%, the % of control ([5]; at 5 µM) is reported as 94% and the % of control ([6]; at 1 µM) is reported as 94%. The % of control ([6]; at 5 µM) was 86%.
`Cn1cc(-n2cnc3c(NCc4nc5cc(Cl)c(Cl)cc5[nH]4)nc(N4CCOCC4)nc32)cn1` gave a % of control [7] of 4.94%.
`CNC(=O)Nc1ccc(-c2nc(N3CC4CCC(C3)O4)c3cnn(C4CCC5(CC4)OCCO5)c3n2)cc1` gave a % of control [8] of 100%.
With `Cc1cc(F)c(C(=O)Nc2cccc(-c3nncn3C(C)C)n2)cc1-n1cnc(C2CC2)c1` the % of control [9] was 84%.
Work on `COCC(=O)NC/C=C/c1ccc2ncnc(Nc3ccc(Oc4ccc(C)nc4)c(C)c3)c2c1` [CP-724714] yielded a % of control [10] of 100% and a % of control [11] of 96%.
`N#Cc1cccc(-c2c[nH]c3ncnc(N4CCOCC4)c23)c1` gave a % of inhibition [12] of -4%, a % of control [13] of 84% and a % of control (Misshapen-like kinase 1) of 46%.
